# From US8912121B2, “Herbicidal compositions comprising 4-amino-3-chloro-5-fluoro-6-(4-chloro-2-fluoro-3-methoxyphenyl)pyridine-2-carboxylic acid or a derivative thereof and certain PS II inhibitors” (Dow Agrosciences LLC, priority 2012, dated 2014)
# Key:
# [1] = tested on: ECHOR (Echinochloa oryzoides, early watergrass); test: In-water applied mixtures, transplanted paddy rice, greenhouse; type: in vivo, Echinochloa oryzoides (Ard.) Fritsch; details: 19 DAA
# Method: (§1) Weed seeds or nutlets of the desired test plant species were planted in puddled soil (mud) prepared by mixing a shredded, non-sterilized mineral soil (50.5 percent silt, 25.5 percent clay, and 24 percent sand, with a pH of about 7.6 and an organic matter content of about 2.9 percent) and water at a 1:1 volumetric ratio. The prepared mud was dispensed in 365 mL aliquots into 16-ounce (oz.) non-perforated plastic pots with a surface area of 86.59 square centimeters (cm^2) leaving a headspace of 3 centimeters (cm) in each pot Mud was allowed to dry overnight prior to planting or transplanting. Rice seeds were planted in Sun Gro MetroMix® 306 planting mixture, which typically has a pH of 6.0 to 6.8 and an organic matter content of about 30 percent, in plastic plug trays. Seedlings at the second or third leaf stage of growth were transplanted into 840 mL of mud contained in 32-oz. non-perforated plastic pots with a surface area of 86.59 cm^2 4 days prior to herbicide application. The paddy was created by filling the headspace of the pots with 2.5 to 3 cm of water. When required to ensure good germination and healthy plants, a fungicide treatment and/or other chemical or physical treatment was applied. The plants were grown for 4-22 days in a greenhouse with an approximate 14 h photoperiod which was maintained at about 29° C during the day and 26° C. during the night. Nutrients were added as Osmocote® (19:6:12, N:P:K+ minor nutrients) at 2 g per 16-oz. pot and 4 g per 32-oz. pot. Water was added on a regular basis to maintain the paddy flood, and supplemental lighting was provided with overhead metal halide 1000-Watt lamps as necessary. The plants were employed for testing when they reached the first through fourth true leaf stage.
# (§2) Treatments consisted of the acid or esters of 4-amino-3-chloro-5-fluoro-6-(4-chloro-2-fluoro-3-methoxy-phenyl)pyridine-2-carboxylic acid (compound A) each formulated as an SC (suspension concentrate) and various herbicidal components alone and in combination. Forms of compound A were applied on an acid equivalent basis.
# (§3) Other herbicidal components were applied on an active ingredient basis and included photosystem II (PSII)-inhibits propanil formulated as […] bentazon-sodium formulated as Basagran®, and simetryne (technical grade material).
# (§4) Treatment requirements for each compound or herbicidal component were calculated based upon the rates being tested, the concentration of active ingredient or acid equivalent in the formulation, an application volume of 2 mL per component per pot, and an application area of 86.59 cm^2 per pot.
# (§5) For formulated compounds, a measured amount was placed in an individual 100 or 200 mL glass vial and was dissolved in a volume of 1.25% (v/v) Agri-Dex® crop oil concentrate to obtain application solutions.
# (§6) For technical grade compounds, a weighed amount was placed in an individual 100 to 200 mL glass vial and was dissolved in a volume of acetone to obtain concentrated stock solutions. […] The concentrated stock solutions obtained were diluted with an equivalent volume of an aqueous mixture containing 2.5% (v/v) crop oil concentrate so that the final application solutions contained 1.25% (v/v) crop oil concentrate.
# (§7) Applications were made by injecting with a pipetter appropriate amounts of the application solutions, individually and sequentially, into the aqueous layer of the paddy. Control plants were treated in the same manner with the solvent blank. Applications were made so that all treated plant material received the same concentrations of acetone and crop oil concentrate.
# (§8) The treated plants and control plants were placed in a greenhouse as described above and water was added as needed to maintain a paddy flood. After approximately 3 weeks the condition of the test plants as compared with that of the untreated plants was determined visually and scored on a scale of 0 to 100 percent where 0 corresponds to no injury or growth inhibition and 100 corresponds to complete kill. […]
# [2] = tested on: LEFCH (Leptochloa chinensis, Chinese sprangletop); test: as above; type: in vivo, Leptochloa chinensis (L.) Nees
# Method: as §1, §2, §3, §4, §5, §6, §7, §8
SMILES,Visual Weed Control (%) Obs ([1]; 8 g ae/ha) [%],Visual Weed Control (%) Obs ([1]; 16 g ae/ha) [%],Visual Weed Control (%) Obs ([1]; 32 g ae/ha) [%],"Visual Weed Control (%) Obs ([2]; 8.75 g ae/ha, 21 DAA) [%]","Visual Weed Control (%) Obs ([2]; 17.5 g ae/ha, 21 DAA) [%]","Visual Weed Control (%) Obs ([2]; 35 g ae/ha, 21 DAA) [%]","Visual Weed Control (%) Obs ([2]; 70 g ae/ha, 20 DAA) [%]","Visual Weed Control (%) Obs ([2]; 42.4 g ae/ha, 20 DAA) [%]","Visual Weed Control (%) Obs ([2]; 84.8 g ae/ha, 20 DAA) [%]"
"COc1c(Cl)ccc(-c2nc(C(=O)OCc3ccccc3)c(Cl)c(N)c2F)c1F [Compound A Benzyl Ester, benzyl ester of 4-amino-3-chloro-5-fluoro-6-(4-chloro-2-fluoro-3-methoxy-phenyl)pyridine-2-carboxylic acid]",10,20,25,20,30,55,80,,
"COc1c(Cl)ccc(-c2nc(C(=O)O)c(Cl)c(N)c2F)c1F [Compound A Acid, 4-amino-3-chloro-6-(4-chloro-2-fluoro-3-methoxyphenyl)-5-fluoropyridine-2-carboxylic acid]",,,,0,0,,,15,55
